Laboratory results published in patent US20120088772A1, “NOVEL PHARMACEUTICAL COMPOSITION FOR PREVENTION AND/OR TREATMENT OF ATTENTION DEFICIT/HYPERACTIVITY DISORDER” (ASTELLAS PHARMA INC., priority 2009, published 2012).
Where a name gives a salt, the structure may show the parent alone.

Key:
[1] = test system: spontaneously hypertensive stroke-prone rats (SHRSP); assay: Passive avoidance response test with SHRSP (attention deficit/hyperactivity disorder model); type: in vivo, rat; settings: for Minimum effective dose: 30 min before test; for Effect on cumulative entry latency of SHRSP: sum of entry latency of 2nd to 5th trial, compared with solvent group
Method: Verification of the therapeutic effect on attention deficit/hyperactivity disorder was carried out using spontaneously hypertensive stroke-prone rats (SHRSP). […] The method of Fox et al. (Fox, G. B. et al., Behay. Brain. Res., 131: 151-161, 2002) was partially modified, and the drug action on attention deficit/hyperactivity disorder was verified using a passive avoidance response test with SHRSP. That is, a solvent (vehicle), or dilutions prepared by diluting methylphenidate, compound (1), compound (2), compound (3), compound (4), and compound (5), with a solvent at multiple concentrations were administered to the rats in each group. Methylphenidate was subcutaneously administered, and compounds (1) to (5) were orally administered. As the solvent, physiological saline was used for methylphenidate and a 0.5% aqueous solution of methylcellulose was used for compounds (1) to (5). After 30 minutes of each drug administration, rats were placed in the bright room of the passive avoidance response measurement apparatus, and the time required for the rat to enter the dark room (entry latency) was measured. The longest time for measurement was 180 seconds. When rats entered in the dark room, a very weak electric current was forced to flow from a foot grid in the dark room. This trial was repeated five times, and the sum of the entry latency from 2nd time to 5th time (cumulative entry latency) was adopted as an indicator of the therapeutic effect on attention deficit/hyperactivity disorder. The test of significance difference was carried out between the solvent administered group and the drug administered groups, using Dunnett's test.

BEC1 potassium channel [2] = biological target: T1, BEC1 potassium channel (Homo sapiens, UniProt Q9ULD8); assay: BEC1 inhibitory activity by 86Rb ion release from BEC1 expressing cells; type: cell-based; parameters: expressed in transfected cells; settings: 86Rb release, BEC1 stably expressing CHO (dhfr-deficient) cells, 100 mM KCl stimulation; read-out: BEC1 Inhibittory Activity IC50
T1 sequence (Q9ULD8 1-1083): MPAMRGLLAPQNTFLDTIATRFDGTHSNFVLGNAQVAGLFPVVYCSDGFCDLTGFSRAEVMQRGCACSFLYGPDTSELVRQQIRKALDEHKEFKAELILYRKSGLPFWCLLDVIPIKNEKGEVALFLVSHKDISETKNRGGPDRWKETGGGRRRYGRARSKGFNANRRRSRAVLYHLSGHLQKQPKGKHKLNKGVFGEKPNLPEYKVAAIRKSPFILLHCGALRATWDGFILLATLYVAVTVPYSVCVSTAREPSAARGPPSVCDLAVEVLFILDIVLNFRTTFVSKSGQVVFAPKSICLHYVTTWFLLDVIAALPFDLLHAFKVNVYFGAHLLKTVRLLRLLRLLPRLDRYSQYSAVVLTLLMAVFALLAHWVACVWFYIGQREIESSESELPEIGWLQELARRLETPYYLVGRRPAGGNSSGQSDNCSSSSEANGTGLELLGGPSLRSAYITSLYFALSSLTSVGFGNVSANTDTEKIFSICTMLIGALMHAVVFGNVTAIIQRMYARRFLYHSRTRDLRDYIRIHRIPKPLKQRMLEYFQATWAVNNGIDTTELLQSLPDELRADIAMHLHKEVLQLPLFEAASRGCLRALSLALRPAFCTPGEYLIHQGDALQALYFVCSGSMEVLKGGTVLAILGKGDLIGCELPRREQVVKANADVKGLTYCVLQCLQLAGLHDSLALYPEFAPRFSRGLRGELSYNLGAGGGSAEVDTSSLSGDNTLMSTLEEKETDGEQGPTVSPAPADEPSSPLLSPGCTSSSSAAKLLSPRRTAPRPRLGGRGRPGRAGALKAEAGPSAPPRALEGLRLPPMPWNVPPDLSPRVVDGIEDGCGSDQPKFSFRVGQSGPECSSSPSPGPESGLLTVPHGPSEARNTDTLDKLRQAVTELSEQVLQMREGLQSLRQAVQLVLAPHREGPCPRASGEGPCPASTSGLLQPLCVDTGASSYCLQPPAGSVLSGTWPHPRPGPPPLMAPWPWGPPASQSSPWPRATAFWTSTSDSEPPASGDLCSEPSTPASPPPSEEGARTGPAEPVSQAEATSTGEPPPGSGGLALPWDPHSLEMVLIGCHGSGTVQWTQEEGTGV
Method: Method for measuring BEC1 inhibitory activity of compound utilizing 86Rb ion release amount as indicator
The channel activity of BEC1 was measured according to the method described in U.S. Pat. No. 6,326,168 utilizing the release of the ions of radioactive isotope 86Rb from BEC1 expressing cells as an indicator. Specifically, when BEC1 expressing cells which had taken in 86Rb ions were stimulated with 100 mM KCl, the radioactivity released from the cells was designated as the channel activity of BEC1. 86Rb ions were incorporated into cells by culturing (3 hours, 37° C.) BEC1 stably expressing cells in the presence of 86RbCl (0.5 μCi/ml), and the unincorporated 86Rb ions were removed by washing the cells three times with HEPES buffered physiological saline (pH 7.4, 2.5 mM KCl). […]
The Cherenkov radioactivities of the extracellular fluid and the cell lysate were respectively measured, and the sum was designated as the total radioactivity. The release amount of 86Rb ions was expressed as the percentage of the radioactivity of the extracellular fluid to the total radiation activity. […] The inhibitory action of the compound was indicated as the IC50 value determined from the inhibition % (that is, (control value—test value)×100/(control value—blank value)). […]

BEC1 potassium channel [3] = biological target: T1, BEC1 potassium channel; settings: background statement; cited from earlier work
[4] = oral, smallest dose giving significantly longer cumulative entry latency than solvent group (Dunnett's test)

`Fc1ccc(Nc2nc(NCc3ncccn3)nc(Nc3ccc(F)cc3)n2)cc1` (as salt: HCl) [(2), N,N′-bis(4-fluorophenyl)-N″-(pyrimidin-2-ylmethyl)-1,3,5-triazine-2,4,6-triamine] showed a melting point of 183 to 186 °C.
For `Fc1ccc(Nc2nc(NCc3ncccn3)nc(Nc3ccc(F)cc3)n2)cc1` [(2), N,N′-bis(4-fluorophenyl)-N″-(pyrimidin-2-ylmethyl)-1,3,5-triazine-2,4,6-triamine], the Minimum effective dose [1, 4] was 0.03 mg/kg p.o and the “Effect on cumulative entry latency of SHRSP” value (from here on “Effect … of SHRSP”) [1] was “prolonged the cumulative entry latency”.
For `COc1ccc(Nc2nc(NCc3ncccn3)nc(Nc3ccc(F)cc3)n2)cc1` [(3), N-(4-fluorophenyl)-N′-(4-methoxyphenyl)-N″-(pyrimidin-2-ylmethyl)-1,3,5-triazine-2,4,6-triamine], the Minimum effective dose [1, 4] was 0.3 mg/kg p.o and the “Effect … of SHRSP” value [1] was “prolonged the cumulative entry latency”.
For `Fc1ccc(Nc2nc(NCc3ccncn3)nc(Nc3ccc(F)cc3)n2)cc1` [(4), N,N′-bis(4-fluorophenyl)-N″-(pyrimidin-4-ylmethyl)-1,3,5-triazine-2,4,6-triamine], the Minimum effective dose [1, 4] was 0.03 mg/kg p.o and the “Effect … of SHRSP” value [1] was “prolonged the cumulative entry latency”.
With `Cl.Nc1nc(Nc2ccc(F)cc2)nc(N(Cc2ccnc(F)c2)c2ccccc2)n1` [(5), N-(4-fluorophenyl)-N′-[(2-fluoro-4-pyridyl)methyl]-N′-phenyl-1,3,5-triazine-2,4,6-triamine hydrochloride] the Minimum effective dose [1, 4] was 3 mg/kg p.o, the “Effect … of SHRSP” value [1] was “prolonged the cumulative entry latency” and the IC50 (BEC1 potassium channel [2]) was 0.085 µM.
In the case of `Fc1ccc(Nc2nc(NCc3ncccn3)nc(Nc3ccccc3)n2)cc1` [Compound (1), N-(4-fluorophenyl)-N′-phenyl-N″-(pyrimidin-2-ylmethyl)-1,3,5-triazine-2,4,6-triamine], the Minimum effective dose [1, 4] is reported as 0.1 mg/kg p.o and the “Effect … of SHRSP” value [1] is reported as “prolonged the cumulative entry latency”.
For `COC(=O)C(c1ccccc1)C1CCCCN1` (stereo not shown) [Methylphenidate, methylphenidate, reference compound], the Minimum effective dose ([1]; subcutaneous (sc), smallest dose giving significantly longer cumulative entry latency than solvent group) was 0.1(sc) mg/kg and the “Effect … of SHRSP” value [1] was “prolonged the cumulative entry latency”.
For `C=C[C@H]1C[N@@]2CC[C@H]1C[C@@H]2[C@@H](O)c1ccnc2ccc(OC)cc12` [quinidine], the “Inhibition of BEC1 potassium channels” value (BEC1 potassium channel [3]) is given as “do not inhibit”.
For `CC[N+](CC)(CC)CC` [tetraethylammonium], the “Inhibition of BEC1 potassium channels” value (BEC1 potassium channel [3]) is listed as “do not inhibit”.
